The values that follow come from the supplement of paper PMC6723410.

This test relates to GUMC-403. Kind of test: viability at highest tested concentration (max response) relative to DMSO (% of DMSO control); higher = less cytotoxic. Particulars: library / dose series: MIPE library, 11-point 1:3 dilution; top concentration 46.1 µM; 48 h. The method, boiled down:
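This value is viability at the highest tested concentration relative to vehicle control. GUMC-403 papilloma cells from a patient, grown by conditional reprogramming, were plated at 700/well in 1536-well plates and given 23 nL of compound by pin tool for 48 h. CellTiter-Glo luminescence on a ViewLux was normalised with vehicle wells at 100% and empty wells at 0%.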
On to `CCOC(=O)O[C@]1(C(=O)OCCl)CC[C@H]2[C@@H]3CCC4=CC(=O)C=C[C@]4(C)[C@H]3[C@@H](O)C[C@@]21C`, for which the viability amounted to 149. The value for `O=C(CCc1ccc(O)cc1)c1c(O)cc(O)cc1O` was 107; that for `O=[S+]([O-])(O)c1ccc2cc(/N=N/c3cc([S+](=O)([O-])O)c4cccnc4c3O)ccc2c1` was 126. In the case of `Clc1ccc(C(Cn2ccnc2)OCc2c(Cl)cccc2Cl)c(Cl)c1` (stereo unspecified), the viability was 113. The value for `CC[C@@]1(O)C[C@H](O[C@H]2C[C@H](N(C)C)[C@H](O[C@H]3C[C@H](O)[C@H](O[C@H]4CCC(=O)[C@H](C)O4)[C@H](C)O3)[C@H](C)O2)c2c(cc3c(c2O)C(=O)c2c(O)cccc2C3=O)[C@H]1C(=O)OC` was 83.4. As to `Cc1[nH]c(/C=C2\C(=O)Nc3ccc([S+](=O)([O-])N(C)c4cccc(Cl)c4)cc32)c(C)c1C(=O)N1CCN(C)CC1`, the viability was found to be 138. The value for `CC(C)[C@H](CO)Nc1nc(Nc2ccc(C(=O)O)c(Cl)c2)c2ncn(C(C)C)c2n1` was 75.1; that for `CCC(C)N(C)C(=O)c1cc2ccccc2c(-c2ccccc2Cl)n1` (stereo unspecified) was 96.7; that for `CC(C(C)N1CC(=O)NC(=O)C1)N1CC(=O)NC(=O)C1` (stereo unspecified) was 109.

`Cc1cc(CN2CCN(c3c(Br)cnc4[nH]c(-c5ccc(N6CCN(C)CC6)cc5)nc34)CC2)no1` showed a viability of 108. In the case of `Nc1nc2ccc(OC(F)(F)F)cc2s1` it was 86.9.

`COc1nc(N)nc2c1ncn2[C@@H]1O[C@H](CO)[C@@H](O)[C@@H]1O`: the viability is 120. The value for `COc1cc(O)c2c(c1)C1OC1C[C@H](O)[C@H](O)C(=O)/C=C\C[C@H](C)OC2=O` (stereo partly specified) was 107.

As to `FC1=C(C=C(C\C2=N\NC(=O)C3=C2C=CC=C3)C=C1)C(=O)N4CCN(CC4)C(=O)C5CC5`, the viability came out at 82.6. The molecule `CCOCC(O)COc1ccc(NC(=O)CC[S+](C)C)cc1` (stereo unspecified) had a viability of 111.

Take `CCCC1=NC(=C2[N]1NC(=N\C2=O)/C3=CC(=CC=C3OCC)[S+]([O-])(=O)N4CCN(CC)CC4)C`: the viability worked out at 102. In the case of `OCc1ccc(-c2nn(Cc3ccccc3)c3ccccc23)o1` it was 94.3. As for `C[C@]12CCC(=O)C(O)=C1CC[C@@H]1[C@@H]2CC[C@]2(C)C(=O)CC[C@@H]12`, the viability came to 113. `CC1=C(CC(=O)O)c2cc(F)ccc2/C1=C\c1ccc([S+](C)[O-])cc1` (stereo unspecified) registered a viability of 59.8.

In turn, `CC(=O)[C@H]1CC[C@H]2[C@@H]3C/C=C4/C[C@@H](O)CC[C@]4(C)[C@H]3CC[C@]12C` yielded a viability of 115.

As for `CCOC(=O)N1c2ccc(C(F)(F)F)cc2[C@@H](N(Cc2cc(C(F)(F)F)cc(C(F)(F)F)c2)C(=O)OC)C[C@H]1CC`, the viability was found to be 87.7.

Regarding `O=C(O)c1cc(/N=N/c2ccc([S+](=O)([O-])Nc3ccccn3)cc2)ccc1O`, the viability was determined as 121. On to `CN1c2ccccc2C(=O)N2CCc3c([nH]c4ccccc34)C21` (stereo unspecified), for which the viability was 102.

Consider `COc1ccc([S+](=O)([O-])Nc2cc(-c3c(O)ccc4ccccc34)c(O)c3ccccc23)cc1`, for which the viability came out at 117. In turn, `CCCCOCCOc1nc(-c2ccc(C(=O)O)c(F)c2)sc1C` gave a viability of 105. Molecule `COC(=O)N[C@H](C(=O)N[C@@H](Cc1ccccc1)[C@@H](O)CN(Cc1ccc(-c2ccccn2)cc1)NC(=O)[C@@H](NC(=O)OC)C(C)(C)C)C(C)(C)C` gave a viability of 112. The value for `O=C(/C=C/C=C/c1ccc2c(c1)OCO2)N1CCCCC1` was 114. The value for `CCOC(=O)C/1=C(O)/C(=O)N(CC2=CC=CC=C2)C1` was 136; that for `O=C(Oc1ccc([N+](=O)[O-])cc1)N1CCN(Cc2cccc(Oc3ccccc3)c2)CC1` was 63.7. `N#CCNC(=O)c1ccc(-c2ccnc(Nc3ccc(N4CCOCC4)cc3)n2)cc1` registered a viability of 9.51. With `CN1[C@@H]2CCC[C@H]1C[C@@H](NC(=O)c1nn(C)c3ccccc13)C2.Cl`, the viability was 105. The value for `O=C(Nc1nc2ccccc2n1CCN1CCOCC1)c1cccc([N+](=O)[O-])c1` was 124; that for `C\C1=C(\C=C(C#N)/C(=O)N1)C2=C[N]3C=CN=C3C=C2` was 96. The molecule `CCOC(=O)N[C@@H]1CC[C@@H]2[C@@H](C1)C[C@H]1C(=O)O[C@H](C)[C@H]1[C@H]2/C=C/c1ccc(-c2cccc(F)c2)cn1` displayed a viability of 123. In the case of `C#C[C@]1(O)CC[C@H]2[C@@H]3CCc4cc(OC)ccc4[C@H]3CC[C@@]21C` it was 88.2. Molecule `Cc1ccc([S+](=O)([O-])OCC(=O)Nc2ccc(C(=O)O)c(O)c2)cc1` returned a viability of 91.4.

Molecule `C[C@@H]1CC[C@H]2[C@@H](C)C(=O)O[C@@H]3O[C@@]4(C)CC[C@@H]1[C@]32OO4` showed a viability of 109. The molecule `C[C@H]([C@H](O)CCC(C)(C)O)[C@H]1CC[C@@]2(O)C/3=C/C(=O)[C@@H]4C[C@@H](O)[C@@H](O)C[C@]4(C)[C@H]3CC[C@]12C` registered a viability of 120. On to `CN1CCN(C(=O)O[C@H]2c3nccnc3C(=O)N2c2ccc(Cl)cn2)CC1`, for which the viability was 117. For `CCCCCCCCCC(=O)N[C@@H](Cc1c[nH]c2ccccc12)C(=O)N[C@H](CC(N)=O)C(=O)N[C@@H](CC(=O)O)C(=O)N[C@@H]1C(=O)NCC(=O)N[C@@H](CCCN)C(=O)N[C@@H](CC(=O)O)C(=O)N[C@H](C)C(=O)N[C@@H](CC(=O)O)C(=O)NCC(=O)N[C@H](CO)C(=O)N[C@@H]([C@@H](C)CC(=O)O)C(=O)N[C@@H](CC(=O)c2ccccc2N)C(=O)O[C@@H]1C`, the viability is 101. In the case of `CCN1\C=C(C(O)=O)/C(=O)C2=C1C=C(N3CCN(C)CC3)C(=C2)F` it was 115. In the case of `CN1/C=C(\N=C(NC2=CC=C(C=C2)C(=O)N3CCOCC3)/C1=O)/C4=C(C)C(=CC=C4)NC(=O)C5=CC=C(C=C5)C(C)(C)C`, the viability worked out at 117. For the molecule `c1ccc(CNc2nc(N3CCOc4ccccc43)nc3c2CCCC3)cc1`, the viability came to 131. The value for `O=C(Nc1ccccc1)Nc1ccc(-c2ccc(C(=O)[C@@H]3CCC[C@H]3C(=O)O)cc2)cc1` was 128; that for `C=C1C(=O)OC(CCCCCCCC)C1C(=O)O` (stereo unspecified) was 121.

Take `COc1ccc2nc3cc(Cl)ccc3c(Nc3cc(CN4CCCC4)c(O)c(CN4CCCC4)c3)c2n1`: the viability came to 116. The value for `Clc1ccc2ncc(-c3cccc(NC4CNC4)n3)n2c1` was 124; that for `O=C(c1ccc(F)cc1)N1CCC[C@H](c2nc(-c3ccc(F)cc3)no2)C1` was 119; that for `C[C@@H]1[C@H](O)[C@@H](C)/C=C/C=C/C=C/C=C/C=C/C=C/C=C/[C@H](O[C@@H]2O[C@H](C)[C@@H](O)[C@H](N)[C@@H]2O)C[C@@H]2O[C@](O)(C[C@@H](O)C[C@@H](O)[C@H](O)CC[C@@H](O)C[C@@H](O)CC(=O)O[C@H]1C)C[C@H](O)[C@H]2C(=O)O` was 123. For the molecule `CNCC(O)c1ccc(O)cc1` (stereo unspecified), the viability came out at 132. In the case of `COC1=CC=C(C=C1)C/2=C(OC3O[C@@H](C)[C@H](O)[C@@H](O)[C@H]3O)/C(=O)C4=C(O2)C(=C(OC5O[C@H](CO)[C@@H](O)[C@H](O)[C@H]5O)C=C4O)CC=C(C)C` (stereo partly specified), the viability was determined as 117. In the case of `CNC1[C@@H](O)C(O[C@@H]2C(O)C(O[C@H]3O[C@H]([C@@H](C)NC)CC[C@H]3N)[C@@H](N)C[C@H]2N)OC[C@]1(C)O` (stereo partly specified) it was 101. The value for `O=C(Cc1ccc(-c2ccc(OCCN3CCOCC3)cc2)cn1)NCc1ccccc1` was 104. Molecule `CN1C(=O)COc2c(C(=O)NC3CN4CCC3CC4)cc(Cl)cc21` (stereo unspecified) returned a viability of 107. In the case of `C[N+](C)([O-])CCNc1ccc(NCC[N+](C)(C)[O-])c2c1C(=O)c1c(O)ccc(O)c1C2=O` it was 104. The value for `NC1=NC=C(C=C1)C2=CC=C3N=CC\4=C(N(C(=O)\C=C4)C5=CC(=CC=C5)C(F)(F)F)C3=C2` was 43.7; that for `O=C1CCc2cc(OCCCCc3nnnn3C3CCCCC3)ccc2N1` was 107. `Cc1ccccc1C(C(=O)NC1CCCC1)N(C(=O)Cn1cnc2ccccc21)c1cccc(F)c1` (stereo unspecified): the viability came to 101. In the case of `C=C(C)[C@@H]1CC[C@]2(C(=O)O)CC[C@]3(C)[C@H](CC[C@@H]4[C@@]5(C)CC[C@H](O)C(C)(C)[C@@H]5CC[C@]43C)[C@@H]12` it was 94.5; in that of `Cc1cccc(C)c1OCC(=O)N[C@@H](Cc1ccccc1)[C@@H](O)C[C@H](Cc1ccccc1)NC(=O)[C@H](C(C)C)N1CCCNC1=O`, 121. The value for `CN1CC(=O)N2[C@H](c3ccc4c(c3)OCO4)c3[nH]c4ccccc4c3C[C@@H]2C1=O` was 91.5. In the case of `O=C(O)CCn1c2c(c3ccccc31)C[C@H](N[S+](=O)([O-])c1ccc(F)cc1)CC2` it was 116. Take `Cc1ccc([S+](=O)([O-])N[C@@H](Cc2ccccc2)C(=O)CCl)cc1`: the viability turned out to be 90.3. For `O=C(O)CCC1CCC(c2cc(F)ccc2F)([S+](=O)([O-])c2ccc(Cl)cc2)CC1` (stereo unspecified), the viability was found to be 99.9. The value for `CC[C@H]1OC(=O)[C@H](C)[C@@H](O[C@H]2C[C@@](C)(OC)[C@@H](O)[C@H](C)O2)[C@H](C)[C@@H](O[C@@H]2O[C@H](C)C[C@H](N(C)C)[C@H]2O)[C@](C)(O)C[C@@H](C)/C(=N\OCOCCOC)[C@H](C)[C@@H](O)[C@]1(C)O` was 83.3. The value for `c1ccc2c(-c3cnn4cc(-c5ccc(N6CCNCC6)cc5)cnc34)ccnc2c1` was 2.71.
